Patent publication US7595327B2, “Beta-sulfonamide hydroxamic acid inhibitors of tace/matrix metalloproteinase” (priority 2005, dated 2009)
Like-named read-outs stand apart in the source and are kept apart here.

Key:
MMP-13 = MMP-13 (Homo sapiens, UniProt P45452); test: In-vitro fluorescence assay of MMP-13 activity; type: biochemical
Experimental: See Knight, C. […] […].
The method was essentially the same as for the determination of MMP-1 activity, described above, except that the final concentration of purified MMP in the assay was 0.5 nM, prepared by diluting with the assay buffer.

[1] = molecular target: T1, TACE (catalytic domain of the recombinant TACE protein) (Homo sapiens, UniProt P78536); test: TACE FRET assay using TACE Cat; type: biochemical; details: FRET, pro-TNF-α substrate peptide; read-out: TACE IC50
T1 construct: The catalytic domain of the recombinant TACE protein was expressed and purified; made in house
How it was run: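 Recombinant TACE catalytic domain (1 ug/ml) pre-incubated 10 min at room temperature with inhibitor in 50 mM Tris-HCl pH 7.4, 25 mM NaCl, 4% glycerol, 0.005% Brij 35; Abz/Dpa pro-TNF-α peptide substrate added, fluorescence (Ex 320/Em 420) followed 10 min; IC50 from initial rates by Hill fit.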

[2] = molecular target: T2, recombinant human catalytic domain of MMP-14 (Homo sapiens, UniProt P50281); test: In-vitro fluorescence assay of MMP-14 activity; type: biochemical
T2 construct: 20 kDa; purchased Chemicon International, Inc. CC1041
Experimental: The results were analyzed as described for MMP-13 activity, above.

recombinant human MMP-2 = molecular target: T3, recombinant human MMP-2 (Homo sapiens, UniProt P08253); test: In-vitro fluorescence assay of MMP-2 activity; type: biochemical
T3 sequence (P08253 110-660): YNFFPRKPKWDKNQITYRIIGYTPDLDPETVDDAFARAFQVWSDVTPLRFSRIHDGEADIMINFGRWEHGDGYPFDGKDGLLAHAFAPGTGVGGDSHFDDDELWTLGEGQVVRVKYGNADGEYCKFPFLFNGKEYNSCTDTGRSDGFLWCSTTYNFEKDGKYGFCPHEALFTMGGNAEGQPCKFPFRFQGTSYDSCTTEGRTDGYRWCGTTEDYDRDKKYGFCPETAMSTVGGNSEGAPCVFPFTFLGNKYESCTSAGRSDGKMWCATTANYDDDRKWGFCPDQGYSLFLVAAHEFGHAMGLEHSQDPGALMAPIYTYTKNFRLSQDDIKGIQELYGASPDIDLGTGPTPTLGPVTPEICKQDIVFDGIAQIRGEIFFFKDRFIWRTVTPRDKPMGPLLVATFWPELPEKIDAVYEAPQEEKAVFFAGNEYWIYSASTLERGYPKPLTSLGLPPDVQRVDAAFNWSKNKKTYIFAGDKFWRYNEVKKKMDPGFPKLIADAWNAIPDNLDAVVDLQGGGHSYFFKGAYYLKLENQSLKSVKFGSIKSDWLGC
Experimental: (§1) A continuous assay was used in which the substrate is a synthetic peptide containing a fluorescent group (7-methoxycoumarin; Mca) that is quenched by energy transfer to a 2,4-dinitrophenyl group. […] The substrate used was Mca-PQGL-(3-[2,4-dinitrophenyl]-L-2,3-diaminopropionyl)-AR-OH (denoted as Wammp-5, custom synthesized by AnaSpec, Inc.). The assay buffer consisted of 50 mM Hepes (pH 7.4), 100 mM NaCl, 5 mM CaCI2, and 0.005% Brij-35. Each well of black polystyrene 96-well plates contained a 200 μL reaction mixture consisting of assay buffer, purified MMP (final concentration of 25 ng/ml, prepared by diluting with the assay buffer), and varied concentrations of inhibitor (prepared by serially diluting a given inhibitor in DMSO in 96-well polypropylene plate). […] The enzymatic reactions were initiated by adding the substrate to a final concentration of 20 μM, and mixing 10 times with a pipette. The final DMSO concentration in the assay was 6.0%.
(§2) Plots of the inhibitor concentration vs. the percent inhibition were fit to the following equation: y=(a−d)/[1+(x/c)^b]+d, a general sigmoidal curve with Hill slope, a to d. x is the inhibitor concentration under test. y is the percent inhibition. a is the limiting response as x approaches zero. As x increases without bound, y tends toward its limit d. c is the inflection point (IC50) for the curve. That is, y is halfway between the lower and upper asymptotes when x=c. b is the slope factor or Hill coefficient.

[3] = tested on: LPS-induced TNF-α secretion in human whole blood; test: Human whole blood assay for LPS-induced TNF-α secretion; type: cell-based; details: LPS 100 ng/ml, read-out: TNF Secretion HWB IC50
How it was run: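 Fresh blood from healthy volunteers pre-incubated 1 h at 37° C with compound (final DMSO <0.2%), then stimulated with 100 ng/ml LPS for 4 h or overnight at 37° C with rotation. Supernatant TNF-α measured by ELISA; percent inhibition and IC50 derived by curve fitting.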

[4] = molecular target: T4, recombinant human catalytic domain of MMP-1 (Homo sapiens, UniProt P03956); test: In-vitro fluorescence assay of MMP-1 activity; type: biochemical
T4 construct: The source of enzyme in the assay was the recombinant human catalytic domain of MMP-1
T4 sequence (P03956 100-269 limits assumed): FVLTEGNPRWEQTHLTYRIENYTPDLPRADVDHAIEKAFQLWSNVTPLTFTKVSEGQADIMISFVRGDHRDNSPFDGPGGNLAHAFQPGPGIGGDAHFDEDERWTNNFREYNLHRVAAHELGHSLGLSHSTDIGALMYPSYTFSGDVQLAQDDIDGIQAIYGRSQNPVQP
Experimental: as §1, §2

[5] = tested on: TNF-α secretion in Raw 264.7 cells; test: Cell-based assay for inhibition of TNF-α secretion in Raw cells; details: Mus musculus, RAW264.7, LPS 100 ng/ml, 4 hr
How it was run: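 Confluent Raw 264.7 cells were seeded overnight, refed, and pre-incubated 1 hr with compound (0.2% final DMSO), then stimulated with LPS at 100 ng/ml final for 4 hr at 37° C. Supernatant TNF-α measured by ELISA; % inhibition and IC50 by curve fitting.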

T1 sequence (P78536 223-474 limits assumed): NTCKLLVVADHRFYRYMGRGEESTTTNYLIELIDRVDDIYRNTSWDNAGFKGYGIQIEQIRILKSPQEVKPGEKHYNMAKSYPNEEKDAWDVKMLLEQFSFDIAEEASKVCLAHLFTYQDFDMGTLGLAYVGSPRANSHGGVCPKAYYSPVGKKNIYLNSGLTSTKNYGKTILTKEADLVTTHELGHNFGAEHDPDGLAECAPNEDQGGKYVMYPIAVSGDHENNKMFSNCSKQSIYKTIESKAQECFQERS

## Cc1cc(COc2ccc(S(=O)(=O)N(C)C3C4CCC(C4)C3C(=O)NO)cc2)c2ccccc2n1 (single isomer, unassigned) [Example 1a, exo-N-hydroxy-3-[methyl({4-[(2-methylquinolin-4-yl)methoxy]phenyl}sulfonyl)amino]bicyclo[2.2.1]heptane-2-carboxamide]
MMP-13
  IC50: > 16700 nM
[1]
  IC50: 1.3 nM
[2]
  IC50: > 16700 nM
Recombinant human MMP-2
  IC50: 4580 nM
[3]
  IC50: 2800 nM
[4]
  IC50: > 16700 nM

## Cc1cc(COc2ccc(S(=O)(=O)N(C)C3C4CCC(C4)C3C(=O)NO)cc2)c2ccccc2n1 (single isomer, unassigned) [Example 1b, exo-N-hydroxy-3-[methyl({4-[(2-methylquinolin-4-yl)methoxy]phenyl}sulfonyl)amino]bicyclo[2.2.1]heptane-2-carboxamide]
[5]
  IC50: 250 nM
MMP-13
  IC50: > 16700 nM
[1]
  IC50: 43 nM
[2]
  IC50: > 16700 nM
Recombinant human MMP-2
  IC50: > 16700 nM
[3]
  IC50: 14000 nM
[4]
  IC50: > 16700 nM

## CC(=O)N1CCC(C(=O)NO)C(NS(=O)(=O)c2ccc(OCc3cc(C)nc4ccccc34)cc2)C1 (mixture of isomers) [Example 36, 1-Acetyl-3-[4-(2-methyl-quinolin-4-ylmethoxy)-benzenesulfonylamino]-piperidine-4-carboxylic acid hydroxyamide]
[5]
  IC50: 202 nM
MMP-13
  IC50: > 16700 nM
[1]
  IC50: 1.3 nM
Recombinant human MMP-2
  IC50: > 16700 nM
[3]; Homo sapiens
  IC50: 1000 nM
[4]
  IC50: > 16700 nM

## Cc1cc(COc2ccc(S(=O)(=O)N(C)[C@@H]3CCC[C@@H]3C(=O)NO)cc2)c2ccccc2n1 (relative stereo) [Example 16, cis-N-Hydroxy-2-[methyl({4-[(2-methylquinolin-4-yl)methoxy]phenyl}sulfonyl)amino]cyclopentanecarboxamide]
[5]
  IC50: 93 nM
MMP-13
  IC50: 13700 nM
[1]
  IC50: < 0.6 nM
Recombinant human MMP-2
  IC50: 9740 nM
[3]; Homo sapiens
  IC50: 4780 nM

## Cc1cc(COc2ccc(S(=O)(=O)N[C@@H]3CN(C(=O)OC(C)(C)C)CCC3C(=O)NO)cc2)c2ccccc2n1 (stereo in doubt) [Example 33, (3S,4R)-4-Hydroxycarbamoyl-3-[4-(2-methyl-quinolin-4-ylmethoxy)-benzenesulfonylamino]-piperidine-1-carboxylic acid tert-butyl ester]
[5]
  IC50: 58 nM
MMP-13
  IC50: > 16700 nM
[1]
  IC50: 0.7 nM
Recombinant human MMP-2
  IC50: > 16700 nM
[3]; Homo sapiens
  IC50: 4700 nM

## Cc1cc(COc2ccc(S(=O)(=O)N(C)[C@@H]3[C@H]4CC[C@H](C4)[C@@H]3C(=O)NO)cc2)c2ccccc2n1 (racemic) [Example 1, exo-N-Hydroxy-3-[methyl({4-[(2-methylquinolin-4-yl)methoxy]phenyl}sulfonyl)amino]bicyclo[2.2.1]heptane-2-carboxamide]
[5]
  IC50: 18 nM
[1]
  IC50: 2 nM
[2]
  IC50: > 16700 nM
Recombinant human MMP-2
  IC50: 6180 nM
[3]; Homo sapiens
  IC50: 3000 nM

## Cc1cc(COc2ccc(S(=O)(=O)N[C@@H]3CN(C=O)CCC3C(=O)NO)cc2)c2ccccc2n1 (mixture of isomers) [Example 34, 1-Formyl-3-[4-(2-methyl-quinolin-4-ylmethoxy)-benzenesulfonylamino]-piperidine-4-carboxylic acid hydroxyamide]
[5]
  IC50: 21 nM
MMP-13
  IC50: > 16700 nM
[1]
  IC50: 1 nM
Recombinant human MMP-2
  IC50: > 16700 nM
[3]; Homo sapiens
  IC50: 500 nM
[4]
  IC50: > 16700 nM

## Cc1cc(COc2ccc(S(=O)(=O)N[C@@H]3[C@H]4CC[C@H](C4)[C@@H]3C(=O)NO)cc2)c2ccccc2n1 (relative stereo) [Example 4, exo-N-Hydroxy-3-[({4-[(2-methylquinolin-4-yl)methoxy]phenyl}sulfonyl)amino]bicyclo[2.2.1]heptane-2-carboxamide]
[5]
  IC50: 18 nM
MMP-13
  IC50: 6380 nM
[1]
  IC50: < 0.6 nM
[2]
  IC50: > 16700 nM
Recombinant human MMP-2
  IC50: > 16700 nM
[3]; Homo sapiens
  IC50: 1600 nM
[4]
  IC50: > 16700 nM

## Cc1cc(COc2ccc(S(=O)(=O)N[C@@H]3CCCC[C@H]3C(=O)NO)cc2)c2ccccc2n1 (relative stereo) [Example 14, trans-N-Hydroxy-2-[({4-[(2-methylquinolin-4-yl)methoxy]phenyl}sulfonyl)amino]cyclohexanecarboxamide]
[5]
  IC50: 60 nM
MMP-13
  IC50: > 16700 nM
[1]
  IC50: 1.8 nM
Recombinant human MMP-2
  IC50: > 16700 nM
[3]; Homo sapiens
  IC50: 4500 nM

## Cc1cc(COc2ccc(S(=O)(=O)N(C)[C@H]3[C@@H](C(=O)NO)[C@@H]4CC[C@H]3O4)cc2)c2ccccc2n1 (relative stereo) [Example 3, exo-N-Hydroxy-3-[methyl({4-[(2-methylquinolin-4-yl)methoxy]phenyl}sulfonyl)amino]-7-oxabicyclo[2.2.1]heptane-2-carboxamide]
[5]
  IC50: 10 nM
MMP-13
  IC50: 3310 nM
[1]
  IC50: 1.1 nM
[2]
  IC50: > 16700 nM
Recombinant human MMP-2
  IC50: 4120 nM
[3]; Homo sapiens
  IC50: 2200 nM
[4]
  IC50: > 16700 nM

## Cc1cc(COc2ccc(S(=O)(=O)N(C)[C@@H]3[C@@H]4CC[C@@H](C4)[C@@H]3C(=O)NO)cc2)c2ccccc2n1 (relative stereo) [Example 5, endo-N-Hydroxy-3-[methyl({4-[(2-methylquinolin-4-yl)methoxy]phenyl}sulfonyl)amino]bicyclo[2.2.1]heptane-2-carboxamide]
[5]
  IC50: 52 nM
MMP-13
  IC50: > 16700 nM
[1]
  IC50: 1.1 nM
Recombinant human MMP-2
  IC50: > 16700 nM
[3]; Homo sapiens
  IC50: 9600 nM
